From paper PMC4749215, “Simvastatin Sodium Salt and Fluvastatin Interact with Human Gap Junction Gamma-3 Protein” (PLoS ONE, 2016)
Where a name gives a salt, the structure may show the parent alone.

biological target: T1, peptide A (contig29; N-terminal residues 1-25 of GJC3, hCx30.2/31.3) (Homo sapiens, UniProt Q8NFK1); experiment: surface plasmon resonance (ProteOn XPR36), immobilised biotinylated peptide; format: binding; details: PBS; 0-400 uM titration; N-terminal 25-residue peptide only
T1 construct: not the full-length connexin
T1 sequence (Q8NFK1 1-25): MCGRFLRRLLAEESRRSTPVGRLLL

Compound | surface plasmon resonance (ProteOn XPR36), immobilised biotinylated peptide
CC1(C)[C@@H](OC(=O)CCC(=O)O)CC[C@]2(C)[C@H]3C(=O)C=C4[C@@H]5C[C@@](C)(C(=O)O)CC[C@]5(C)CC[C@@]4(C)[C@]3(C)CC[C@@H]12 [carbenoxolone disodium salt] | carbenoxolone, exhibited a pronounced binding interaction
CC(C)n1c(/C=C/C(O)CC(O)CC(=O)O)c(-c2ccc(F)cc2)c2ccccc21 (stereo not shown) [fluvastatin sodium salt] | fluvastatin sodium salt, more pronounced binding is seen to peptide A
O=C(O)c1cccnc1Nc1cccc(C(F)(F)F)c1 [niflumic acid] | concentration dependent binding profile of niflumic acid was observed with peptide A
CCC(C)(C)C(=O)O[C@H]1C[C@@H](C)C=C2C=C[C@H](C)[C@H](CC[C@@H](O)C[C@@H](O)CC(=O)O)[C@H]21 [simvastatin sodium salt] | simvastatin acid sodium salt exhibited a weak, concentration dependent binding profile
